Active and inactive are the calls of the source. A value given as a limit tells only on which side of the number the result lay.

Data on two compounds can be found in ChEMBL document CHEMBL5523684, “Development of a tetrahydroindazolone-based HDAC6 inhibitor with in-vivo anti-arthritic activity” (Bioorg Med Chem, 2024).

For one data set, the target named is Histone deacetylase 4 (Homo sapiens, UniProt P56524). Put plainly: Inhibition of human recombinant HDAC4 using Boc-Lys(tri-fluoroacetyl)-AMC as substrate by fluorescence based analysis.
Sequence of Histone deacetylase 4 (P56524 whole entry): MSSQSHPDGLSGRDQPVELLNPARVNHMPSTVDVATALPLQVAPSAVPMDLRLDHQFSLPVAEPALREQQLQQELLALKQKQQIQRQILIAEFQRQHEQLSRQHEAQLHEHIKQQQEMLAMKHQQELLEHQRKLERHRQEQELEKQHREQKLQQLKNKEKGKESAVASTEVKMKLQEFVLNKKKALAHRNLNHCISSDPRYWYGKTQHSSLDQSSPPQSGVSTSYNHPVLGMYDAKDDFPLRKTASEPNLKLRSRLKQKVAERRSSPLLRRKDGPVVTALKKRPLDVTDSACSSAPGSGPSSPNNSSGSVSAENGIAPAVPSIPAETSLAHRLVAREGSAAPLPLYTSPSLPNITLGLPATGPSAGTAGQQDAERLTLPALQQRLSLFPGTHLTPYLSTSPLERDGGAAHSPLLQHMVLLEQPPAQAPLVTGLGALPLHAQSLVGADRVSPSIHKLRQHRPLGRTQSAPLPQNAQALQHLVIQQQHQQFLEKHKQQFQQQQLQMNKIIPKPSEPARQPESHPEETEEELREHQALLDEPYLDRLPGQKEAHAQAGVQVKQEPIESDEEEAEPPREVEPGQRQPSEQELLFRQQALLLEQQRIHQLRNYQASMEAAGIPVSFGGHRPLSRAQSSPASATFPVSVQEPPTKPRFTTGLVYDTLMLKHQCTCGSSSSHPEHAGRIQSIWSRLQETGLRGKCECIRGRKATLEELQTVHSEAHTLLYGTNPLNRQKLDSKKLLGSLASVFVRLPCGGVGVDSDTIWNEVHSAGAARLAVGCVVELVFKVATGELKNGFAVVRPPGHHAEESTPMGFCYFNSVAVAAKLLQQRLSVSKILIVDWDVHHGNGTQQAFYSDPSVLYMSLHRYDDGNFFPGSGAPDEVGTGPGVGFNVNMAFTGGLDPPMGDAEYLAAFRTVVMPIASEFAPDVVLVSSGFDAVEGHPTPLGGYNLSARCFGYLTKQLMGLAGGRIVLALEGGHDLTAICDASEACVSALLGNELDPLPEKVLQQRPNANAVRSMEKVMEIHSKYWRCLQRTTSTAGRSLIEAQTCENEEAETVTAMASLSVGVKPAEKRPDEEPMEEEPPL
Another data set has as its target Histone deacetylase 5 (Homo sapiens, UniProt Q9UQL6). Description: Inhibition of human recombinant HDAC5 using Boc-Lys(tri-fluoroacetyl)-AMC as substrate by fluorescence based analysis.
Data set [1] deals with T1, Protein deacetylase HDAC6 (Homo sapiens, UniProt Q9UBN7).
T1 sequence (Q9UBN7 whole entry): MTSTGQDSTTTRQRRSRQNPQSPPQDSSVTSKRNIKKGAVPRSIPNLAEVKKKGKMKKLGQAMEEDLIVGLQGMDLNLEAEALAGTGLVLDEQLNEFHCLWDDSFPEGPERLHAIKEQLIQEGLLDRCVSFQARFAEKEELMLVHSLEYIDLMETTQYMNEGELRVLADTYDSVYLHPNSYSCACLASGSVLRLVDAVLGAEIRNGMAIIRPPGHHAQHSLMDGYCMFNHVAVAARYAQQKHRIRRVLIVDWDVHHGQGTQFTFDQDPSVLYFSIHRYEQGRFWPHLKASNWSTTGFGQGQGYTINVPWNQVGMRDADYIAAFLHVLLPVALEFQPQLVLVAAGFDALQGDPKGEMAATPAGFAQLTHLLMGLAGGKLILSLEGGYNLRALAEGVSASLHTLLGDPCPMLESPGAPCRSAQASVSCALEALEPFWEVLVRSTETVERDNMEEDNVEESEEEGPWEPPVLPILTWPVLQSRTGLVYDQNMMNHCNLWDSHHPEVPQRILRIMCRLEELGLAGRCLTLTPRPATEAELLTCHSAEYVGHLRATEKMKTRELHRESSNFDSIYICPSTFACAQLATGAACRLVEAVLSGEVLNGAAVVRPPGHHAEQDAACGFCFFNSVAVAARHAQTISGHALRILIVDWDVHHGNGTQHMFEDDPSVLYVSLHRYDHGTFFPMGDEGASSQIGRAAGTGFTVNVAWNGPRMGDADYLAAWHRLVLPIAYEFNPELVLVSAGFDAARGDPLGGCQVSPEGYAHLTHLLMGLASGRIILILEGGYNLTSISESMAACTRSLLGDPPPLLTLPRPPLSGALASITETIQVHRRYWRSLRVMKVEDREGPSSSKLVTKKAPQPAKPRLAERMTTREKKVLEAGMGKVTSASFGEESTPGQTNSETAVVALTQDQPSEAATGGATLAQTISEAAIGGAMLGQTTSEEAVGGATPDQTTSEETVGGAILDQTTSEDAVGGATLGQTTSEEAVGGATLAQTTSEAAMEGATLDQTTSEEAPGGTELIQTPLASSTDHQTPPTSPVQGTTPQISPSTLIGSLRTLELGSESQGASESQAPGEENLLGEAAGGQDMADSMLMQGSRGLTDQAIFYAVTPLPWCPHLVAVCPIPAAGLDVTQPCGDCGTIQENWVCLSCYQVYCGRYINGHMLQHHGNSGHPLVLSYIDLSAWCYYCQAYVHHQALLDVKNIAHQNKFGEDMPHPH
Description: Inhibition of human recombinant HDAC6 using fluorescent peptide p53 (379 to 382 residues) RHKK(Ac) as substrate by fluorescence based analysis.

The next data set concerns the target Histone deacetylase 9 (Homo sapiens, UniProt Q9UKV0). Description: Inhibition of human recombinant HDAC9 using Boc-Lys(tri-fluoroacetyl)-AMC as substrate by fluorescence based analysis.
The target in data set [2] is T2, Protein deacetylase HDAC6 (Homo sapiens) (UniProt Q9UBN7).
T2 sequence (whole entry): T1 sequence (Q9UBN7 whole entry)
Put plainly: Inhibition of HDAC6 in human HH cells assessed as induction of acetylated tubulin accumulation at 0.3 uM by Western blot analysis. The data set is classed as cell-based.

The target in data set [3] is T2, Protein deacetylase HDAC6 (Homo sapiens). Put plainly: Inhibition of HDAC6 in human HH cells assessed as induction of acetylated H3 accumulation upto 10 uM by Western blot analysis. In kind it is cell-based. A general note: A western blot detects proteins with antibodies after separation by electrophoresis.
The target is the same in data set [4]. Description: Inhibition of HDAC6 in human HH cells assessed as induction of acetylated H4 accumulation upto 10 uM by Western blot analysis. In kind it is cell-based.
For another data set, the system named is THP-1. Description: Inhibition of TNF-alpha secretion in LPS-stimulated human THP-1 cells pretreated with compound for 24 hrs followed by LPS-induction and measured after 4 hrs by ELISA analysis. The following applies: dose 0.3-10 µM. In kind it is functional, cell-based. (In general: In an ELISA, binding on a coated surface is turned into a signal by an enzyme label.)

The nature of data set [5]: Half life in mouse at 10 mg/kg, iv. In kind it is ADME, organism-based. The following applies: in vivo.
The nature of data set [6]: Tmax in mouse at 50 mg/kg, po. In kind it is ADME, organism-based. The following applies: in vivo.
Data set [7] is described as follows: C0 in mouse at 10 mg/kg, iv. The data set is classed as ADME, organism-based. The following applies: in vivo.
Data set [8] in a line: Cmax in mouse at 50 mg/kg, po. The data set is classed as ADME, organism-based. The following applies: in vivo.
Data set [9] in a line: AUClast in mouse at 10 mg/kg, iv. In kind it is ADME, organism-based. The following applies: in vivo.
Data set [10] can be described thus: AUClast in mouse at 50 mg/kg, po. The data set is classed as ADME, organism-based. To be noted: in vivo.
A short description of data set [11]: AUC (0 to infinity) in mouse at 10 mg/kg, iv. To be noted: in vivo. In kind it is ADME, organism-based.
A short description of data set [12]: AUC (0 to infinity) in mouse at 50 mg/kg, po. The data set is classed as ADME, organism-based. The following applies: in vivo.
Data set [13] in a line: Half life in dog at 5 mg/kg, po. The data set is classed as ADME, organism-based, Canis lupus familiaris. The following applies: in vivo.
Data set [14] in a line: Tmax in dog at 5 mg/kg, po. The data set is classed as ADME, organism-based, Canis lupus familiaris. The following applies: in vivo.
Data set [15] is described as follows: Cmax in dog at 5 mg/kg, po. The data set is classed as ADME, organism-based, Canis lupus familiaris. To be noted: in vivo.
Data set [16] in a line: AUClast in dog at 0.5 mg/kg, iv. In kind it is ADME, organism-based, Canis lupus familiaris. The following applies: in vivo.
Data set [17] in a line: AUC (0 to infinity) in dog at 0.5 mg/kg, iv. The data set is classed as ADME, organism-based, Canis lupus familiaris. The following applies: in vivo.
The nature of data set [18]: Clearance in dog at 0.5 mg/kg, iv. The data set is classed as ADME, organism-based, Canis lupus familiaris. The following applies: in vivo.
Data set [19] is described as follows: Bioavailability in dog at 0.5 mg/kg, iv. The data set is classed as ADME, organism-based, Canis lupus familiaris. To be noted: in vivo.
Data set [20] can be described thus: Half life in monkey at 0.5 mg/kg, iv. The data set is classed as ADME, organism-based, Macaca mulatta. The following applies: rhesus monkey, in vivo.
Data set [21] in a line: Half life in monkey at 10 mg/kg, po. The data set is classed as ADME, organism-based, Macaca mulatta. To be noted: rhesus monkey, in vivo.
Data set [22] can be described thus: C0 in monkey at 0.5 mg/kg, iv. In kind it is ADME, organism-based, Macaca mulatta. The following applies: rhesus monkey, in vivo.
Data set [23] can be described thus: Cmax in monkey at 10 mg/kg, po. The data set is classed as ADME, organism-based, Macaca mulatta. The following applies: rhesus monkey, in vivo.
Data set [24] is described as follows: AUClast in monkey at 0.5 mg/kg, iv. The data set is classed as ADME, organism-based, Macaca mulatta. To be noted: rhesus monkey, in vivo.
Data set [25] is described as follows: AUClast in monkey at 10 mg/kg, po. The following applies: rhesus monkey, in vivo. In kind it is ADME, organism-based, Macaca mulatta.
The nature of data set [26]: Clearance in monkey at 0.5 mg/kg, iv. The data set is classed as ADME, organism-based, Macaca mulatta. The following applies: rhesus monkey, in vivo.
A short description of data set [27]: Bioavailability in monkey at 0.5 mg/kg, iv. In kind it is ADME, organism-based, Macaca mulatta. To be noted: rhesus monkey, in vivo.
Data set [28] has as its system Rattus norvegicus. Description: Antiarthritic activity against adjuvant-induced arthritis Lewis rat model at 50 mg/kg, po measured after 8 days. The data set is classed as functional, organism-based. To be noted: time 8.0 day.
The subject of data set [29] is Mus musculus. Description: Antiarthritic activity against collagen-induced arthritis DBA1J mouse model at 15 to 30 mg/kg, sc measured after 21 days. The data set is classed as functional, organism-based. To be noted: dose lower […], dose upper 30.0 mg/kg, time 21.0 day.
The test system of data set [30] is Rattus norvegicus. Description: Antiarthritic activity against adjuvant-induced arthritis Lewis rat model assessed as improvement in arthritis symptoms at 50 mg/kg, po measured after 8 days in presence of methotrexate. The following applies: time 8 day. In kind it is functional.
Data set [31] relates to Mus musculus. Description: Antiarthritic activity against collagen-induced arthritis DBA1J mouse model assessed as improvement in arthritis symptoms at 15 mg/kg, sc measured after 21 days. In kind it is functional. The following applies: time 21 day.
Data set [32] concerns Mus musculus. Put plainly: Antiarthritic activity against collagen-induced arthritis DBA1J mouse model assessed as improvement in arthritis symptoms at 30 mg/kg, sc measured after 21 days. The data set is classed as functional. To be noted: time 21 day.

Sequence of Histone deacetylase 5 (Q9UQL6 whole entry): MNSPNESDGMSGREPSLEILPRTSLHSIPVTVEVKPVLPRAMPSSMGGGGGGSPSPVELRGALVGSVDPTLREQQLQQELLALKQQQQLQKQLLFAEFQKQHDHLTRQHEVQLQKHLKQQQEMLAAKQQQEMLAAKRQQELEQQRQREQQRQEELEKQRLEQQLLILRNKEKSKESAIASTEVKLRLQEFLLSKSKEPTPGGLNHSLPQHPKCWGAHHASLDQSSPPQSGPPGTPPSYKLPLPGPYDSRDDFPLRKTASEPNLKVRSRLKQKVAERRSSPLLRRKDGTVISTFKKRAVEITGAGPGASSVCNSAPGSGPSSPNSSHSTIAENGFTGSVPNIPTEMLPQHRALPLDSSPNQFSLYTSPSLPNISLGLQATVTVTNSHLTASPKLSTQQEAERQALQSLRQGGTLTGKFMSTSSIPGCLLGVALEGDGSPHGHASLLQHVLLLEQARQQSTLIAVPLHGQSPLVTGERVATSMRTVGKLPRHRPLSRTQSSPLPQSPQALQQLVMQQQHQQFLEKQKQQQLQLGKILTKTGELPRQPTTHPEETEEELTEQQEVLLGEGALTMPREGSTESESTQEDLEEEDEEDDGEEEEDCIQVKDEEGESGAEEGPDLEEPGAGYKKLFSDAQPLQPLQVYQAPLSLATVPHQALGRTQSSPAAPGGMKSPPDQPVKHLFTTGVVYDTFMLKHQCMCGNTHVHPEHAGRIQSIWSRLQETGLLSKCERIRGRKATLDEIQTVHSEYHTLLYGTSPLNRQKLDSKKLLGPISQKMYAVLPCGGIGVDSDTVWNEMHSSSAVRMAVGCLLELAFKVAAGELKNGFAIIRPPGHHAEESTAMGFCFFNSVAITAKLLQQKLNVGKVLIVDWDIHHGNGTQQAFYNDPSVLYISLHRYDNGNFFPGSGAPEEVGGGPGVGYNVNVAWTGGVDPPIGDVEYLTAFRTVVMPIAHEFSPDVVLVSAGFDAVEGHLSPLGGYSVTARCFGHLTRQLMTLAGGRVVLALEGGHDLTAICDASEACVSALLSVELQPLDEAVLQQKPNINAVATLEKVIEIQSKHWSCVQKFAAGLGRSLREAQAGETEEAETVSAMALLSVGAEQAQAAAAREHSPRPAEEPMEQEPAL
Sequence of Histone deacetylase 9 (Q9UKV0 whole entry): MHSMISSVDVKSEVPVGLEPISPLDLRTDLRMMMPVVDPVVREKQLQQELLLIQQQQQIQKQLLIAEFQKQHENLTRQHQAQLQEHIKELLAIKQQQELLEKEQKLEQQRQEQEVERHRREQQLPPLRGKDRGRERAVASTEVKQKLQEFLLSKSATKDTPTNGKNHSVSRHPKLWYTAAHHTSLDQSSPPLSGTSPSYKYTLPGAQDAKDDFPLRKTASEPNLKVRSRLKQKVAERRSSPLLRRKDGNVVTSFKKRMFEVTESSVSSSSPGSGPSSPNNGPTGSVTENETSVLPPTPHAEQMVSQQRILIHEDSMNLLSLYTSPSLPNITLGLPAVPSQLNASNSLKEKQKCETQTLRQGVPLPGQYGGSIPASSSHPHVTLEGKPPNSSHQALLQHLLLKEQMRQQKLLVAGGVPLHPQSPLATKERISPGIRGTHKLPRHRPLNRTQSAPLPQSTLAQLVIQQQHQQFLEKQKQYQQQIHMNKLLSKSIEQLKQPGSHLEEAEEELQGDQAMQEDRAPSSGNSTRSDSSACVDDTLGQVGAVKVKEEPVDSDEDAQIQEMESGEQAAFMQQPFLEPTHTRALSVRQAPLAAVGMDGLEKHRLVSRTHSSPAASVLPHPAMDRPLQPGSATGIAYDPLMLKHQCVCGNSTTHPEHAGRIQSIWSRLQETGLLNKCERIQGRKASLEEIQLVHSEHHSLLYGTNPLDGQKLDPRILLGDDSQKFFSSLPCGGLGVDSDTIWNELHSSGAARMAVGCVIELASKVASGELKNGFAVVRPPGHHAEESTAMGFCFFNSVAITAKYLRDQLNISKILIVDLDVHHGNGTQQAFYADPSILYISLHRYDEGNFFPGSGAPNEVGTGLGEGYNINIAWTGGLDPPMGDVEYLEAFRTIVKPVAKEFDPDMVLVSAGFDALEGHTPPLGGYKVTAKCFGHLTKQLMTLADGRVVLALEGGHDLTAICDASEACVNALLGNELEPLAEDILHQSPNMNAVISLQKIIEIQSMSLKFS

Broadly, the IC50 is the concentration needed to halve the response being measured. Consider `O=C(NO)c1ccc(Cn2c3c(c4ccccc42)C(=O)CCC3)cc1`, for which the IC50 was > 20 µM on Histone deacetylase 4, > 20 µM on Histone deacetylase 5, 0.035 µM in data set [1] and > 20 µM on Histone deacetylase 9.

One may read the half-life as the time needed for the level to fall by half in the phase considered. As usually defined, the Tmax is the time from dosing to the highest level. Broadly, the Cmax is the highest concentration seen after dosing. In general, AUC(0-t) refers to exposure summed from dosing to a finite time, without extrapolation to infinity. Usually AUC(0-inf) stands for the area under the concentration-time curve extrapolated to infinity. As a reminder, the clearance is a measure of how efficiently the substance is removed, as volume per time. Usually bioavailability stands for the share of a dose that reaches the circulation, judged against a reference dose that is usually intravenous. Regarding `CC1(C)CC(=O)c2c(C(F)(F)F)nn(Cc3ccc(C(=O)NO)cc3)c2C1`, the inhibition result in [2] was “Active”. Besides, the inhibition entry in data set [3] and in data set [4] was “inactive” in each case. For the same compound, the inhibition result in the data set on THP-1 was “Dose-Dependent Effect”. Moreover, the half-life in [5] was 17.4 min; in data set [13], 84 min; in data set [20], 18.6 min; in data set [21], 57 min. Further, the time to peak (Tmax) in [6] stood at 4.98 min; in data set [14] it was 24 min. Also, the C0 in [7] worked out at 4290 ng/mL; in data set [22], 1040 ng/mL. Besides, the Cmax in data set [8] is 2080 ng/mL; in data set [15] it was 1030 ng/mL; in data set [23] it was 137 ng/mL. The area under the curve AUC(0-t) in data set [9] is 1200 ng·h/mL; in [10], 1140 ng·h/mL; in [16], 446 ng·h/mL; in [24], 299 ng·h/mL; in data set [25], 332 ng·h/mL. Further, the AUC(0-inf) in [11] was found to be 1210 ng·h/mL; in [12], 1150 ng·h/mL; in [17] it was 458 ng·h/mL. Further, the clearance in data set [18] was 18.8 mL/min/kg. Further, the bioavailability was 25.1% in [19] and 11.2% in data set [27]. The compound also returned a CL in data set [26] of 55.7 mL/min/kg. The outcome with Rattus norvegicus [28] and in the data set with Mus musculus [29] was Active. The Activity with Rattus norvegicus [30] is listed as 97.9%; in the data set on Mus musculus [31], 53%; in the data set on Mus musculus [32] it was 65%.
